Data on one compound can be found in article PMC9496258, “Trace Immunosensing of Multiple Neonicotinoid Insecticides by a Novel Broad-Specific Antibody Obtained from a Rational Screening Strategy” (Biosensors, 2022).

For orientation: IC50 means the midpoint of a concentration-inhibition curve.

For one experiment, the system named is 6F11-mAb. Description: icELISA with purified 6F11-mAb. The conditions noted are these: 6F11-mAb. In kind it is binding, mouse. The protocol: (§1) Procedures for the immunization, cell fusion and clone selection were similar to those described in our previous publications, and indirect non-competitive and competitive ELISAs were sequentially used for hybridoma screening. The generated mAb was purified by protein G from the ascitic fluid and then stored at −20 °C for further analysis. A mouse antibody isotyping kit was used to determine the isotypes of the mAbs.
(§2) Checkerboard titration was carried out by icELISAs with serial dilutions of the antibody and coating antigen (imidacloprid-OVA). […] The specificity and sensitivity were determined by icELISAs. Briefly, the mixture of standards with different concentrations and equal volume of antibody was added into the reaction wells of pre-coated plates. Standard curves were fitted into a four-parameter logarithmic equation: Y = A2 + [(A1 − A2)/1 + (X/X0)^p], and the half-maximal inhibitory concentration (IC50, defined as the assay sensitivity, was used to calculate cross-reactivity rate(CR).
(§3) Under the optimal working concentrations of 10 µg/mL for imidacloprid-OVA, icELISAs with high sensitivity to neonicotinoid pesticides and metabolites were established.

Another experiment relates to mAb 6F11. Description: icELISA with mAb 6F11 (hybridoma supernatant), coating antigen imidacloprid-OVA. It counts as binding, mouse. On the procedure: as §1, §2
(§4) Moreover, sensitivity (IC50) and CR to eight neonicotinoids were assessed by icELISAs.

A further experiment deals with mAb 4B1. The experiment can be described thus: icELISA with mAb 4B1 (hybridoma supernatant), coating antigen imidacloprid-OVA. In kind it is binding, mouse. The protocol:
as §1, §2, §4

Another experiment has as its system mAb 5C3. Description: icELISA with mAb 5C3 (hybridoma supernatant), coating antigen imidacloprid-OVA. It counts as binding, mouse. On the procedure: as §1, §2, §4
The subject of experiment [1] is 6F11-rAb. The experiment can be described thus: icELISA with full-length recombinant 6F11-rAb. In kind it is binding, mouse. The protocol: Transient production in the HEK 293F suspension cells was performed as described. Briefly, cells were prepared with viable cell density around 1.5 × 10^6 cells/mL and viability above 95 % in 180 mL serum-free culture medium in 500 mL Nunc Erlenmeyer flasks and incubated at 37 °C in 5% CO2 atmosphere and shaken at 130 rpm in an orbital shaker for 2 h. A total of 90 μg of the plasmids (VH:VL = 2:3) mixed with transfection reagent were pre-warmed for 15 min and then transiently transfected into HEK 293F. After 5 days of incubation, the supernatant was collected and purified by protein G. The size of the purified full-length rAb was identified by SDS-PAGE.
as §2, §3

In the next experiment the test system is mAb 1A5. The experiment can be described thus: icELISA with mAb 1A5 (hybridoma supernatant), coating antigen imidacloprid-OVA. It counts as binding, mouse. The protocol:
as §1, §2, §4

For experiment [2], the system named is 6F11-rAb. Description: GNIS (gold lateral-flow immunosensing strip) assay based on 6F11-rAb. It counts as binding, mouse. The text has this:
The preparation method for the conjugate of rAb-gold nanoparticles was based on a previous report. A colloid gold lateral-flow immunosensing strip consisted of three pads (glass fiber membrane, NC membrane and absorption membrane) using a one-sided adhesive polyvinyl chloride sheet as a support. The prepared imidaclothiz-OVA conjugate and goat anti-mouse IgG antibody were immobilized onto the NC membrane as the test line (T line) and control line (C line), respectively. For analysis, standard solutions at different concentrations were added to the 96-well microtiter plate, and then the strip was inserted into the well. After 15 min, the signal was observed using a portable reader (Helmen, Suzhou, China). Standard curves were gained by plotting the signal ratio of the T line to the C line (T/C) against the analyte concentration, and they were also fitted into the four-parameter logarithmic equation.
The 6F11-rAb was used to establish a rapid and reliable GNIS assay, and the limit detection of T-line disappearance was 5 ng/mL for imidacloprid, clothianidin and imidaclothiz and over 100 ng/mL for thiacloprid, acetamiprid and nitenpyram, judged by normal visual detection (Figure 5). […] Therefore, imidacloprid, clothianidin and imidaclothiz, with better sensitivity, were further determined by spiking experiment.

In experiment [3] the test system is positive hybridoma clones. The experiment can be described thus: Dual-target icELISA hybridoma screening. The settings on record: analyte at 1 µg/mL, nine clones. In kind it is binding, mouse. The protocol:
as §1
After cell fusion and the primary screening by non-competitive ELISAs, 37 positive wells of hybridomas giving the absorbance values higher than 0.5 were picked out and filled with fresh culture medium. On the next day, they were quickly rechecked by icELISAs to qualitatively test the ability of recognizing both imidacloprid and acetamiprid. […] Therefore, the top four broad-specific clones were selected and screened with imidacloprid and acetamiprid until stable hybridoma lines were obtained. Then the culture supernatants were collected for characterization of the four kinds of broad-specific mAbs.

A further experiment relates to anti-imidaclothiz mAb. On the set-up: method as in PMID 21299253. The conditions noted are these: anti-imidaclothiz mAb-based ELISA; cited from earlier work. (In general: ELISA stands for enzyme-linked immunosorbent assay.)
Setting [4] is: cross-reactivity relative to imidacloprid.

≈ marks a conversion by molar mass, not a printed value.

Regarding `O=[N+]([O-])NC1=NCCN1Cc1ccc(Cl)nc1` [Imidacloprid, imidacloprid], the CR in the experiment on 6F11-mAb (setting [4]) stood at 100.0%; in the experiment with mAb 6F11 (mAb 6F11, cross-reactivity relative to imidacloprid), 100.0%; in the experiment on mAb 4B1 (mAb 4B1, cross-reactivity relative to imidacloprid), 100.0%; with mAb 5C3 (mAb 5C3, cross-reactivity relative to imidacloprid), 100.0%; with 6F11-rAb [1] (setting [4]), 100.0%; in the experiment on mAb 1A5 (mAb 1A5, cross-reactivity relative to imidacloprid), 100.0%. The IC50 with 6F11-mAb (imidacloprid-OVA 10 µg/mL) is on record as 0.27 ng/mL; in the experiment with mAb 6F11 (mAb 6F11, hybridoma supernatant, icELISA), 0.59 ng/mL; in the experiment with mAb 4B1 (mAb 4B1, hybridoma supernatant, icELISA), 2.90 ng/mL; in the experiment on mAb 5C3 (mAb 5C3, hybridoma supernatant, icELISA) it was 0.24 ng/mL; in the experiment on 6F11-rAb [1] (imidacloprid-OVA 10 µg/mL), 0.36 ng/mL; in the experiment on mAb 1A5 (mAb 1A5, hybridoma supernatant, icELISA), 1.14 ng/mL. Moreover, the half-inhibitory concentration (IC50) in the experiment on 6F11-rAb [2] (with a strip reader) was 0.9 ng/mL (≈ 3.52 nM). The “limit detection of T-line disappearance (visual detection limit)” value in the experiment on 6F11-rAb [2] (normal visual detection) is reported as 5 ng/mL. Moreover, the inhibition rate in experiment [3] is recorded as above 50%. In the experiment with anti-imidaclothiz mAb, the cross-reactivity is reported as 91.7%.
